biological target: GST-tagged recombinant human RIP2 (Homo sapiens (Human), UniProt O43353); experiment: RIP2 Kinase Assay (ADP-Glo); assay type: biochemical; conditions: in vitro kinase activity, ATP 25 μM
Procedure: GST-tagged recombinant human RIP2 (25 ng) is incubated with 5 μL of compounds (0.5% DMSO), 5 μL of MBP (0.5 μg/μl) and 5 μL of ATP (25 μM) in buffer (40 mM Tris, 7.5; 20 mM MgCl2; 0.1 mg/ml BSA; 50 μM DTT). The assay was started by incubating the reaction mixture in a 96-well plate at 30° C. for 60 minutes. After the incubation, 25 μL ADP-Glo reagent was added, and the reaction was incubated at 30° C. for 40 minutes to stop the reaction and degrade residual ATP. The ADP product was then converted to ATP by adding 50 μL per well of detection reagent. Luminescence was detected after 30 minutes room temperature incubation with the Molecular device I3X plate reader. The IC50 values were calculated from a series of percent inhibition values determined at a range of inhibitor concentration using software routines as implemented in the GraphPad Prism 7 software and SigmaPlot 13.0.

Sequence of GST-tagged recombinant human RIP2 (O43353 whole entry): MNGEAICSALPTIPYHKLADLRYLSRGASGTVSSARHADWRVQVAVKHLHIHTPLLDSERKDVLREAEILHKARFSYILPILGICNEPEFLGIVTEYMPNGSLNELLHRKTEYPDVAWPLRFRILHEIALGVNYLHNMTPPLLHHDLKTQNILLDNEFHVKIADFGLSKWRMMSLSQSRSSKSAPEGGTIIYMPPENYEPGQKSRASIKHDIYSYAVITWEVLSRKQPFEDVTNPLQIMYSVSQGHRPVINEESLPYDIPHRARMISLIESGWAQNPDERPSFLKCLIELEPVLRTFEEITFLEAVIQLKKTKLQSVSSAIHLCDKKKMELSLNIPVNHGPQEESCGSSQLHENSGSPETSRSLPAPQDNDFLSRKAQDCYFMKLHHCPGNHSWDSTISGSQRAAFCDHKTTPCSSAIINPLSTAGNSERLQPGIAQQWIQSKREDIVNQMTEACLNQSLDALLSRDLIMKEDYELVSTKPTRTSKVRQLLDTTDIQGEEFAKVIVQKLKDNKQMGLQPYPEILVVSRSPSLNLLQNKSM

| IC50 [nM] | Compound |
| --- | --- |
| > 1000 | Nc1nc2ccc(Br)cn2c1C(=O)C1CC1 [Example 1, (2-amino-6-bromoimidazo[1,2-a]pyridin-3-yl)(cyclopropyl)methanone] |
| 101 to 500 | Cc1ccncc1-c1ccc2nc(N)c(C(=O)C3CC3)n2c1 [Example 2] |
| > 1000 | Nc1nc2ccc(Br)cn2c1C(=O)[C@@H]1C[C@@H]1F [Example 4] |
| 101 to 500 | CC(=O)c1c(N)nc2ccc(-c3cccc(F)c3C)cn12 [Example 6, 1-(2-amino-6-(3-fluoro-2-methylphenyl)imidazo[1,2-a]pyridin-3-yl)ethan-1-one] |
| 101 to 500 | Cc1cc(F)ccc1-c1ccc2nc(N)c(C(=O)[C@@H]3C[C@@H]3F)n2c1 [Example 7] |
| 101 to 500 | Nc1nc2ccc(-c3cccs3)cn2c1C(=O)[C@@H]1C[C@@H]1F [Example 8] |
| > 1000 | Nc1nc2ccc(-c3cccc(F)c3C(F)(F)F)cn2c1C(=O)[C@@H]1C[C@@H]1F [Example 10] |
| 1 to 100 | Cc1cccc(-c2ccc3nc(N)c(C(=O)[C@@H]4C[C@@H]4F)n3c2)c1C [Example 11] |
| 1 to 100 | Cc1c(F)cccc1-c1ccc2nc(N)c(C(=O)c3ccccn3)n2c1 [Example 12] |
| 101 to 500 | Cc1c(F)cccc1-c1ccc2nc(N)c(C(=O)c3ccccc3)n2c1 [Example 13] |
| 1 to 100 | Cc1c(F)cccc1-c1ccc2nc(N)c(C(=O)C3CC3)n2c1 [Example 14] |
| 1 to 100 | Cc1ccc(F)cc1-c1ccc2nc(N)c(C(=O)[C@@H]3C[C@@H]3F)n2c1 [Example 15] |
| 101 to 500 | Cc1ccc(C)c(-c2ccc3nc(N)c(C(=O)[C@@H]4C[C@@H]4F)n3c2)c1 [Example 16] |
| 101 to 500 | Cc1ccc(-c2ccc3nc(N)c(C(=O)[C@@H]4C[C@@H]4F)n3c2)c(C)c1 [Example 17] |
| 101 to 500 | Cc1cccc(F)c1-c1ccc2nc(N)c(C(=O)[C@@H]3C[C@@H]3F)n2c1 [Example 18] |
| 101 to 500 | Cc1c(-c2ccc3nc(N)c(C(=O)[C@@H]4C[C@@H]4F)n3c2)cccc1C(F)(F)F [Example 19] |
| 101 to 500 | Cc1c(F)cccc1-c1ccc2nc(N)c(C(=O)C3CCC3)n2c1 [Example 20] |
| 101 to 500 | Cc1c(F)cccc1-c1ccc2nc(N)c(C(=O)c3cnn(C)c3)n2c1 [Example 21] |
| 101 to 500 | Cc1c(F)cccc1-c1ccc2nc(N)c(C(=O)C(C)(C)C)n2c1 [Example 22] |
| 501 to 1000 | CCCCC(=O)c1c(N)nc2ccc(-c3cccc(F)c3C)cn12 [Example 23] |
| > 1000 | Cc1c(F)cccc1-c1ccc2nc(NCCN(C)C)c(C(=O)[C@@H]3C[C@@H]3F)n2c1 [Example 24, (2-((2-(dimethylamino)ethyl)amino)-6-(3-fluoro-2-methylphenyl)imidazo[1,2-a]pyridin-3-yl)((1S,2S)-2-fluorocyclopropyl)methanone] |

| IC50 [nM] | Compound |
| --- | --- |
| 101 to 500 | Cc1cc(F)ccc1-c1ccc2nc(N)c(C(=O)[C@H]3C[C@@H]3F)n2c1 [Example 25] |
| 101 to 500 | Cc1cccc(F)c1-c1ccc2nc(N)c(C(=O)[C@H]3C[C@@H]3F)n2c1 [Example 26] |
| > 1000 | Nc1nc2ccc(-c3ccco3)cn2c1C(=O)[C@@H]1C[C@@H]1F [Example 27] |
| 101 to 500 | Cc1scnc1-c1ccc2nc(N)c(C(=O)[C@@H]3C[C@@H]3F)n2c1 [Example 28, (2-amino-6-(5-methylthiazol-4-yl)imidazo[1,2-a]pyridin-3-yl)((1S,2S)-2-fluorocyclopropyl)methanone] |
| 101 to 500 | Cc1ccsc1-c1ccc2nc(N)c(C(=O)[C@@H]3C[C@@H]3F)n2c1 [Example 29] |
| > 1000 | Nc1nc2ccc(-c3cncs3)cn2c1C(=O)[C@@H]1C[C@@H]1F [Example 30] |
| 101 to 500 | Cc1c(-c2ccc3nc(N)c(C(=O)[C@@H]4C[C@@H]4F)n3c2)ccc(F)c1F [Example 31] |
| > 1000 | CC(=O)Nc1nc2ccc(-c3cccc(F)c3C)cn2c1C(C)=O [Example 33, N-(3-acetyl-6-(3-fluoro-2-methylphenyl)imidazo[1,2-a]pyridin-2-yl)acetamide] |
| 101 to 500 | Nc1nc2ccc(-c3ccccc3Cl)cn2c1C(=O)[C@@H]1C[C@@H]1F [Example 34] |
| 101 to 500 | Cc1c(F)cccc1-c1ccc2nc(N)c(C(=O)[C@H]3C[C@H]3F)n2c1 [Example 35] |
| > 1000 | Cc1c(F)cccc1-c1ccc2nc(N)c(C(=O)C3CCN3C(=O)OC(C)(C)C)n2c1 (stereo not shown) [Example 36] |
| > 1000 | CC(=O)c1c(N(C(C)=O)C(C)=O)nc2ccc(-c3cccc(F)c3C)cn12 [Example 37, N-acetyl-N-(3-acetyl-6-(3-fluoro-2-methylphenyl)imidazo[1,2-a]pyridin-2-yl)acetamide] |
| > 1000 | CC(=O)c1ccc(-c2ccc3nc(N)c(C(=O)[C@@H]4C[C@@H]4F)n3c2)c(C)c1 [Example 38] |
| > 1000 | Nc1nc2ccc(-c3ccc(N4CCOCC4)cc3)cn2c1C(=O)[C@@H]1C[C@@H]1F [Example 39] |
| 101 to 500 | Cc1c(F)cccc1-c1ccc2nc(N)c(C(=O)[C@@H]3C[C@H]3F)n2c1 [Example 42] |
| 101 to 500 | Cc1c(F)cccc1-c1ccc2nc(N)c(C(=O)[C@H]3C[C@@H]3F)n2c1 [Example 43] |
| 101 to 500 | Cc1ccc(C(F)(F)F)cc1-c1ccc2nc(N)c(C(=O)[C@@H]3C[C@@H]3F)n2c1 [Example 45] |
| 501 to 1000 | Cc1c(F)cccc1-c1ccc2nc(N)c(C(=O)C3CC(F)(F)C3)n2c1 [Example 46] |
| 101 to 500 | Cc1c(F)cccc1-c1ccc2nc(N)c(C(=O)[C@@H]3CC3(F)F)n2c1 [Example 47] |
| > 1000 | Cc1c(F)cccc1-c1ccc2nc(N)c(C(=O)C3CN(C(=O)OC(C)(C)C)C3)n2c1 [Example 49] |
| 501 to 1000 | Nc1nc2ccc(-c3ccc(N4CCNCC4)cc3)cn2c1C(=O)[C@@H]1C[C@@H]1F [Example 52] |

| IC50 [nM] | Compound |
| --- | --- |
| 101 to 500 | CN1CCN(c2ccc(-c3ccc4nc(N)c(C(=O)[C@@H]5C[C@@H]5F)n4c3)cc2)CC1 [Example 53] |
| > 1000 | CNc1nc2ccc(-c3cccc(F)c3C)cn2c1C(=O)[C@@H]1C[C@@H]1F [Example 54, (6-(3-fluoro-2-methylphenyl)-2-(methylamino)imidazo[1,2-a]pyridin-3-yl)((1S,2S)-2-fluorocyclopropyl)methanone] |
| > 1000 | Cc1c(F)cccc1-c1ccc2nc(N(C)C)c(C(=O)[C@H]3C[C@@H]3F)n2c1 [Example 55, (2-(dimethylamino)-6-(3-fluoro-2-methylphenyl)imidazo[1,2-a]pyridin-3-yl)((1R,2S)-2-fluorocyclopropyl)methanone] |
| 101 to 500 | CN1CCN(c2cccc(-c3ccc4nc(N)c(C(=O)[C@@H]5C[C@@H]5F)n4c3)c2)CC1 [Example 56] |
| 1 to 100 | Nc1nc2ccc(-c3ccc4cc[nH]c4c3)cn2c1C(=O)[C@@H]1C[C@@H]1F [Example 58] |
| 1 to 100 | Nc1nc2ccc(-c3cccc4cc[nH]c34)cn2c1C(=O)[C@@H]1C[C@@H]1F [Example 59] |
| 101 to 500 | Cc1c(F)c(N(C)C)c2[nH]ncc2c1-c1ccc2nc(N)c(C(=O)[C@@H]3C[C@@H]3F)n2c1 [Example 61] |
| 101 to 500 | CSc1c(F)c(C)c(-c2ccc3nc(N)c(C(=O)[C@@H]4C[C@@H]4F)n3c2)c2cn[nH]c12 [Example 62] |
| 1 to 100 | Nc1nc2ccc(-c3ccc4occc4c3)cn2c1C(=O)[C@@H]1C[C@@H]1F [Example 63] |
| 101 to 500 | CSc1c(F)c(Cl)c(-c2ccc3nc(N)c(C(=O)[C@@H]4C[C@@H]4F)n3c2)c2cn[nH]c12 [Example 66] |
| > 1000 | Cc1c(F)cccc1-c1ccc2nc(NC(=O)OC(C)(C)C)c(C(=O)[C@@H]3C[C@@H]3F)n2c1 [Example 70, tert-butyl (6-(3-fluoro-2-methylphenyl)-3-((1S,2S)-2-fluorocyclopropane-1-carbonyl)imidazo[1,2-a]pyridin-2-yl)carbamate] |
| > 1000 | Cc1c(F)cccc1-c1ccc2nc(N3CCCC3)c(C(=O)[C@@H]3C[C@@H]3F)n2c1 [Example 71, (6-(3-fluoro-2-methylphenyl)-2-(pyrrolidin-1-yl)imidazo[1,2-a]pyridin-3-yl)((1S,2S)-2-fluorocyclopropyl)methanone] |
| 101 to 500 | Cc1cc(-c2ccc3nc(N)c(C(=O)[C@@H]4C[C@@H]4F)n3c2)sn1 [Example 72] |
| 1 to 100 | Cc1c(F)cccc1-c1ccc2nc(N)c(C(=O)c3ncccn3)n2c1 [Example 76] |
| 101 to 500 | Cc1c(F)cccc1-c1ccc2nc(N)c(C(=O)c3ccncn3)n2c1 [Example 77] |
| 1 to 100 | Nc1nc2ccc(-c3cnc4[nH]ccc4c3)cn2c1C(=O)c1ccncn1 [Example 78] |
| 1 to 100 | Nc1nc2ccc(-c3ccc4[nH]ncc4c3)cn2c1C(=O)[C@@H]1C[C@@H]1F [Example 80] |
| 1 to 100 | Nc1nc2ccc(-c3ccc4[nH]ncc4c3Cl)cn2c1C(=O)[C@@H]1C[C@@H]1F [Example 81] |
| > 1000 | CNCCNc1nc2ccc(-c3cccc(F)c3C)cn2c1C(=O)[C@@H]1C[C@@H]1F [Example 87, (6-(3-fluoro-2-methylphenyl)-2-((2-(methylamino)ethyl)amino)imidazo[1,2-a]pyridin-3-yl)((1S,2S)-2-fluorocyclopropyl)methanone] |
| 101 to 500 | CC(=O)Nc1nc2ccc(-c3cccc(F)c3C)cn2c1C(=O)[C@@H]1C[C@@H]1F [Example 88, N-(6-(3-fluoro-2-methylphenyl)-3-((1S,2S)-2-fluorocyclopropane-1-carbonyl)imidazo[1,2-a]pyridin-2-yl)acetamide] |

| Compound | IC50 [nM] |
| --- | --- |
| Cc1c(F)cccc1-c1ccc2nc(N)c(C(=O)C3CCN3)n2c1 (stereo not shown) [Example 48] | 101 to 500 |
| Cc1c(F)cccc1-c1ccc2nc(N)c(C(=O)C3CNC3)n2c1 [Example 50] | 1 to 100 |

Reference: patent US11744824B2, “2-amino-3-carbonyl imidazopyridine and pyrazolopyridine compounds” (1ST Biotherapeutics, Inc., priority 2020, dated 2023)
